Reference: ChEMBL document CHEMBL1201862, “PubChem BioAssay data set” (2004)
The source made the active and inactive calls.

What was measured:
Assay type in all cases: functional
LIM domain kinase 1 = LIM domain kinase 1 (Homo sapiens, UniProt P53667); test: Navigating the Kinome. Panel member name: LIMK1
[1] = biological target: Mitogen-activated protein kinase 8 (Homo sapiens, UniProt P45983);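 also: value comes from one member of a kinome-wide kinase profiling panel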
[2] = biological target: Dual specificity protein kinase CLK2 (Homo sapiens, UniProt P49760)
[3] = biological target: Dual specificity mitogen-activated protein kinase kinase 1 (Homo sapiens, UniProt Q02750); test: Navigating the Kinome. Panel member name: MAP2K1
[4] = biological target: Serine/threonine-protein kinase Chk1 (Homo sapiens, UniProt O14757);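 also: measured as one member of a kinome-wide kinase profiling panel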
[5] = biological target: Dual specificity mitogen-activated protein kinase kinase 2 (Homo sapiens, UniProt P36507); test: Navigating the Kinome. Panel member name: MAP2K2
[6] = biological target: Macrophage-stimulating protein receptor (Homo sapiens, UniProt Q04912); test: Navigating the Kinome. Panel member name: MST1R
[7] = biological target: Ribosomal protein S6 kinase alpha-3 (Homo sapiens, UniProt P51812);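 also: measured within a kinome-wide profiling panel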
[8] = biological target: Serine/threonine-protein kinase TBK1 (Homo sapiens, UniProt Q9UHD2); test: Navigating the Kinome. Panel member name: TBK1
[9] = biological target: cAMP-dependent protein kinase catalytic subunit alpha (Homo sapiens, UniProt P17612)
[10] = biological target: Dual specificity tyrosine-phosphorylation-regulated kinase 1A (Homo sapiens, UniProt Q13627);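 also: measured against DYRK1A as one member of a broad kinome profiling panel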
[11] = biological target: Cyclin-dependent kinase 8 (Homo sapiens, UniProt P49336); test: Navigating the Kinome. Panel member name: CDK8
Sequence of Cyclin-dependent kinase 8 (P49336 whole entry): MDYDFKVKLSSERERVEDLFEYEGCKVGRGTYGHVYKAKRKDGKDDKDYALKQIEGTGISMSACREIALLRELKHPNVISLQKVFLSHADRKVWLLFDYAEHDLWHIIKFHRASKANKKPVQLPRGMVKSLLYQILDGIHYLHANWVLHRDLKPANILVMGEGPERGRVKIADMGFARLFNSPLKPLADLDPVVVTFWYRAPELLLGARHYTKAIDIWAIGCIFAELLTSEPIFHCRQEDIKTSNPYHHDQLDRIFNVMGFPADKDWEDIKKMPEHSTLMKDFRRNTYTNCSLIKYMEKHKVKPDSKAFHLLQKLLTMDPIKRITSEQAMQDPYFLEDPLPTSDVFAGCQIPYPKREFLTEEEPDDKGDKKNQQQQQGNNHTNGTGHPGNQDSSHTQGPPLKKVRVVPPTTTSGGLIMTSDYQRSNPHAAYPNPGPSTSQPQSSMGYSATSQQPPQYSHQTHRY

[12] = biological target: Inhibitor of nuclear factor kappa-B kinase subunit epsilon (Homo sapiens, UniProt Q14164); test: Navigating the Kinome. Panel member name: IKBKE
Sequence of Inhibitor of nuclear factor kappa-B kinase subunit epsilon (Q14164 whole entry): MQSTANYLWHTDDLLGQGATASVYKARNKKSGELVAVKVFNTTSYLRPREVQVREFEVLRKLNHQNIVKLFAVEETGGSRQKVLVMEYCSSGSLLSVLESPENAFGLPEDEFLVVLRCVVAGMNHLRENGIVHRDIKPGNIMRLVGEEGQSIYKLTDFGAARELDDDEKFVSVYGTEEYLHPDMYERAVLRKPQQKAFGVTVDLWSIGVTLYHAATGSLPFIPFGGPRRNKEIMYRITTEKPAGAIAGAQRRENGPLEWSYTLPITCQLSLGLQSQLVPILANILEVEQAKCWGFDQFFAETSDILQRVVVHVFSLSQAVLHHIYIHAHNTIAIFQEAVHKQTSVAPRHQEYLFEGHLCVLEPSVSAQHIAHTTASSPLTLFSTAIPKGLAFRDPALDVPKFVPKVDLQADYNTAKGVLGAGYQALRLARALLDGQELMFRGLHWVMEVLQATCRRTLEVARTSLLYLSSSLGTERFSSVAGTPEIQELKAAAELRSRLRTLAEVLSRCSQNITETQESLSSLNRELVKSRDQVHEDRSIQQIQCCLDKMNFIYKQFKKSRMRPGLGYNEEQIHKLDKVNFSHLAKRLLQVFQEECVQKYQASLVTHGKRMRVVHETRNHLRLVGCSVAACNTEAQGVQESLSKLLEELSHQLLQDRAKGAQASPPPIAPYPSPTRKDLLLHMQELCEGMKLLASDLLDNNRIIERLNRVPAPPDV

[13] = biological target: Mitogen-activated protein kinase kinase kinase kinase 2 (Homo sapiens, UniProt Q12851);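 also: measured as one member of a kinome-wide kinase panel, with MAP4K2 as the panel entry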
Sequence of Mitogen-activated protein kinase kinase kinase kinase 2 (Q12851 whole entry): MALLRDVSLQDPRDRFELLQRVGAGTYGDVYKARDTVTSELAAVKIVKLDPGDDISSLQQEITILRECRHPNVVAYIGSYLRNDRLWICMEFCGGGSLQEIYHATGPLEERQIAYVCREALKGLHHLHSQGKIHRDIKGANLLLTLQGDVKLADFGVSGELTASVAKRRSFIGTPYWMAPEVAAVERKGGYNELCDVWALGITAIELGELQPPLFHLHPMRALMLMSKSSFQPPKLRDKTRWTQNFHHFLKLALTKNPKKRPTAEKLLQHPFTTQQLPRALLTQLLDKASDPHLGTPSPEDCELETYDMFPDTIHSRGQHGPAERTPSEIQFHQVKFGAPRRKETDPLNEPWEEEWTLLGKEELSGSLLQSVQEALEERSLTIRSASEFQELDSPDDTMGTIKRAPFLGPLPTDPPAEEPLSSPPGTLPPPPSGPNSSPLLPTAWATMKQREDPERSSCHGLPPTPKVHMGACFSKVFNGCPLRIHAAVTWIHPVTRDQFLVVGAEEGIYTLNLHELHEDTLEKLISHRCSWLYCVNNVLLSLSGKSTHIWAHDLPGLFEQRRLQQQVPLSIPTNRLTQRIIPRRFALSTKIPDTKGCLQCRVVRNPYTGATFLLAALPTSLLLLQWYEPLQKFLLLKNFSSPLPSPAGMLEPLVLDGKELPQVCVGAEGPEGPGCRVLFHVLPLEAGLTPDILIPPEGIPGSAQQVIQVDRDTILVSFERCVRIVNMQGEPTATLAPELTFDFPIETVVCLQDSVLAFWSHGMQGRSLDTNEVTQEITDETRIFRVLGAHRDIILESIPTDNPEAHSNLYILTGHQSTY

[14] = biological target: High affinity nerve growth factor receptor (Homo sapiens, UniProt P04629);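 also: NTRK1 tested as one member of a kinome-wide profiling panel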
Sequence of High affinity nerve growth factor receptor (P04629 whole entry): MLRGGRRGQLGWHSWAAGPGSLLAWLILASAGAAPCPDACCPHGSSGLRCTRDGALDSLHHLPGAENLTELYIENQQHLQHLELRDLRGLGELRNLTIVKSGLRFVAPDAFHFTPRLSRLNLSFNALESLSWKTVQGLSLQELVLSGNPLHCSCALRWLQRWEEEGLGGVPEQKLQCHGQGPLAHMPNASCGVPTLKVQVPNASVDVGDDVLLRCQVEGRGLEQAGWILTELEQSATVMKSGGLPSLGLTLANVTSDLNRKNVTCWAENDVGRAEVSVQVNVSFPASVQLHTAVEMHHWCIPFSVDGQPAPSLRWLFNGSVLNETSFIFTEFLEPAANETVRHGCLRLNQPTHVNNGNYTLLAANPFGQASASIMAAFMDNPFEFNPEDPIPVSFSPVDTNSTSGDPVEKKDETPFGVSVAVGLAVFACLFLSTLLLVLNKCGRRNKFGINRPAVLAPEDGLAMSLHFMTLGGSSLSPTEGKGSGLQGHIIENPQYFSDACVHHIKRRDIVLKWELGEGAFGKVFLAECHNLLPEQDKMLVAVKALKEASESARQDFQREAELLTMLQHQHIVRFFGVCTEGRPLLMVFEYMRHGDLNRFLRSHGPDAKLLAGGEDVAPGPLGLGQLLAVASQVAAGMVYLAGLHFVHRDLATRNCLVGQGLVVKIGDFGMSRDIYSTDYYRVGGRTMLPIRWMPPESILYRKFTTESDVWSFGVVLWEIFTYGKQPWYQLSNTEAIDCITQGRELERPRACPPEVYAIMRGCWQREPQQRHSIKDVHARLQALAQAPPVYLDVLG

[15] = biological target: Leucine-rich repeat serine/threonine-protein kinase 2 (Homo sapiens, UniProt Q5S007);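 also: value from a broad kinome-wide panel profiling study in which LRRK2 was one of the kinases tested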
[16] = biological target: Mitogen-activated protein kinase 9 (Homo sapiens, UniProt P45984);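 also: value from a kinome panel profiling assay, MAPK9 panel entry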
[17] = biological target: 5'-AMP-activated protein kinase catalytic subunit alpha-1 (Homo sapiens, UniProt Q13131)
[18] = biological target: Rho-associated protein kinase 1 (Homo sapiens, UniProt Q13464);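 also: measured within a broad kinome-wide panel profiling many kinases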
[19] = biological target: Calcium/calmodulin-dependent protein kinase type II subunit alpha (Homo sapiens, UniProt Q9UQM7); test: Navigating the Kinome. Panel member name: CAMK2A
[20] = biological target: Serine/threonine-protein kinase D3 (Homo sapiens, UniProt O94806);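 also: determined within a kinase panel screen, with PRKCN as the panel member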
[21] = biological target: Mitogen-activated protein kinase kinase kinase kinase 4 (Homo sapiens, UniProt O95819)
[22] = biological target: Tyrosine-protein kinase JAK3 (Homo sapiens, UniProt P52333)
[23] = biological target: Cyclin-dependent kinase 9 (Homo sapiens, UniProt P50750);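 also: value from the CDK9 entry of a kinome-spanning kinase panel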
Aurora kinase A = Aurora kinase A (Homo sapiens, UniProt O14965);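 also: value from the Navigating the Kinome kinase panel profiling, panel entry STK6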
Aurora kinase B = Aurora kinase B (Homo sapiens, UniProt Q96GD4)
[24] = biological target: Leukocyte tyrosine kinase receptor (Homo sapiens, UniProt P29376); test: Navigating the Kinome. Panel member name: LTK
[25] = biological target: cAMP-dependent protein kinase catalytic subunit PRKX (Homo sapiens, UniProt P51817)
[26] = biological target: Cyclin-dependent kinase 7 (Homo sapiens, UniProt P50613);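 also: value comes from a kinome-wide kinase profiling panel in which CDK7 is one member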
[27] = biological target: Platelet-derived growth factor receptor alpha (Homo sapiens, UniProt P16234); test: Navigating the Kinome. Panel member name: PDGFRA
[28] = biological target: Tyrosine-protein kinase ABL1 (Homo sapiens, UniProt P00519)
[29] = biological target: Tyrosine-protein kinase Lck (Homo sapiens, UniProt P06239);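 also: lck was assayed as one member of a kinase panel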
[30] = biological target: Casein kinase I isoform alpha (Homo sapiens, UniProt P48729)
[31] = biological target: Insulin-like growth factor 1 receptor (Homo sapiens, UniProt P08069); test: Navigating the Kinome. Panel member name: IGF1R
Activated CDC42 kinase 1 = Activated CDC42 kinase 1 (Homo sapiens, UniProt Q07912); test: Navigating the Kinome. Panel member name: ACK1
[32] = biological target: Macrophage colony-stimulating factor 1 receptor (Homo sapiens, UniProt P07333);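 also: value comes from the Navigating the Kinome screening panel, CSF1R member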
[33] = biological target: Vascular endothelial growth factor receptor 1 (Homo sapiens, UniProt P17948);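 also: measured within a kinome-wide profiling panel, FLT1 as the panel member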
[34] = biological target: Platelet-derived growth factor receptor beta (Homo sapiens, UniProt P09619);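 also: value comes from a kinome panel, with PDGFRB tested as one panel member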
[35] = biological target: Fibroblast growth factor receptor 1 (Homo sapiens, UniProt P11362)
[36] = biological target: Tyrosine-protein kinase JAK2 (Homo sapiens, UniProt O60674);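 also: JAK2 tested as one member of a kinase panel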
[37] = biological target: Vascular endothelial growth factor receptor 2 (Homo sapiens, UniProt P35968)
[38] = biological target: Serine/threonine-protein kinase PAK 4 (Homo sapiens, UniProt O96013);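 also: value obtained within a kinome profiling panel in which PAK4 was one of the panel members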
[39] = biological target: Receptor-type tyrosine-protein kinase FLT3 (Homo sapiens, UniProt P36888);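 also: FLT3 was tested as one member of a kinome-wide kinase panel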
Sequence of Receptor-type tyrosine-protein kinase FLT3 (P36888 whole entry): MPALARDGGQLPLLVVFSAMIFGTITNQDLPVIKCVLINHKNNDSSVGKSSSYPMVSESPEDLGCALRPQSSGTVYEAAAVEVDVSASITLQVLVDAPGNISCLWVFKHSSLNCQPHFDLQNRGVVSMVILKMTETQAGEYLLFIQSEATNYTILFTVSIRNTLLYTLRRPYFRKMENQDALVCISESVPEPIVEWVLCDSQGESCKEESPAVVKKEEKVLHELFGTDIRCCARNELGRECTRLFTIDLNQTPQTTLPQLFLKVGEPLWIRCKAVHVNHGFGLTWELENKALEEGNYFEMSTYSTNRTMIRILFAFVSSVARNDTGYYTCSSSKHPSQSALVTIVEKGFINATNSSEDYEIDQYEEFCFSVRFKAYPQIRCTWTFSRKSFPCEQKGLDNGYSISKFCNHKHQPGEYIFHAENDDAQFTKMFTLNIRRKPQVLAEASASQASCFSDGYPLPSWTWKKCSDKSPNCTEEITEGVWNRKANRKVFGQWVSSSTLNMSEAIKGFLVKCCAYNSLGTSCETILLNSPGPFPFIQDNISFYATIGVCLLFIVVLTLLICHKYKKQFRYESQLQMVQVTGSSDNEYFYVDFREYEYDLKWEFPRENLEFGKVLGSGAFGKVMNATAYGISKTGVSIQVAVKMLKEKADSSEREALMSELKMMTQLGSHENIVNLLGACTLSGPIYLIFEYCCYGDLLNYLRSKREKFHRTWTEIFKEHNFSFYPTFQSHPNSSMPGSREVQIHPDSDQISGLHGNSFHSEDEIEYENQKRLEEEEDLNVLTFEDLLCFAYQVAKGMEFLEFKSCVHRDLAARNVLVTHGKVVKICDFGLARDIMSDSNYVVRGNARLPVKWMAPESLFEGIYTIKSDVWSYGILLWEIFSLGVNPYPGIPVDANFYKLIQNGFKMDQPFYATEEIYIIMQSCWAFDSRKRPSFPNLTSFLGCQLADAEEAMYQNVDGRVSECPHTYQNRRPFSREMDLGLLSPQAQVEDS

[40] = biological target: Glycogen synthase kinase-3 beta (Homo sapiens, UniProt P49841);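 also: value comes from a broad kinome profiling panel, with GSK3B as the panel member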
[41] = biological target: Tyrosine-protein kinase BTK (Homo sapiens, UniProt Q06187)
[42] = biological target: Serine/threonine-protein kinase Nek2 (Homo sapiens, UniProt P51955)
[43] = biological target: Glycogen synthase kinase-3 alpha (Homo sapiens, UniProt P49840);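 also: GSK3A result taken from a broad kinome-wide kinase panel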
[44] = biological target: Dual specificity protein kinase CLK4 (Homo sapiens, UniProt Q9HAZ1)
[45] = biological target: Death-associated protein kinase 3 (Homo sapiens, UniProt O43293);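 also: measured as one member of a kinome-wide profiling panel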
Sequence of Death-associated protein kinase 3 (O43293 whole entry): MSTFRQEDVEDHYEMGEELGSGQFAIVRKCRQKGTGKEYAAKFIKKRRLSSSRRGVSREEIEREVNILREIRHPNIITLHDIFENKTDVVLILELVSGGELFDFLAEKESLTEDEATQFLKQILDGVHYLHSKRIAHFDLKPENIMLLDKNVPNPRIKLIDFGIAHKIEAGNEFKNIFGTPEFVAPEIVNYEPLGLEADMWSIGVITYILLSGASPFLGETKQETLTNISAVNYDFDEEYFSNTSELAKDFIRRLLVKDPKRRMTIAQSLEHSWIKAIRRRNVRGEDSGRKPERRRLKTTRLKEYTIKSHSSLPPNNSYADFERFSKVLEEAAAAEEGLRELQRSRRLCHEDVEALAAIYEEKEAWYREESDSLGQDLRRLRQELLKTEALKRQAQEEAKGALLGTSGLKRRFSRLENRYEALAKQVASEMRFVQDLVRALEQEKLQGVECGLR

[46] = biological target: ALK tyrosine kinase receptor (Homo sapiens, UniProt Q9UM73);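 also: ALK tested as one member of a kinase panel screen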
[47] = biological target: Serine/threonine-protein kinase TAO1 (Homo sapiens, UniProt Q7L7X3)
[48] = biological target: Tyrosine-protein kinase receptor TYRO3 (Homo sapiens, UniProt Q06418);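 also: TYRO3 value obtained as one member of a kinome-wide profiling panel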
Activin receptor type-1 = Activin receptor type-1 (Homo sapiens, UniProt Q04771); test: Navigating the Kinome. Panel member name: ACVR1
[49] = biological target: Serine/threonine-protein kinase pim-1 (Homo sapiens, UniProt P11309)
[50] = biological target: Tyrosine-protein kinase Fyn (Homo sapiens, UniProt P06241)
[51] = biological target: BDNF/NT-3 growth factors receptor (Homo sapiens, UniProt Q16620);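 also: NTRK2 measured as one member of a broad kinome-wide kinase profiling panel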
Sequence of BDNF/NT-3 growth factors receptor (Q16620 whole entry): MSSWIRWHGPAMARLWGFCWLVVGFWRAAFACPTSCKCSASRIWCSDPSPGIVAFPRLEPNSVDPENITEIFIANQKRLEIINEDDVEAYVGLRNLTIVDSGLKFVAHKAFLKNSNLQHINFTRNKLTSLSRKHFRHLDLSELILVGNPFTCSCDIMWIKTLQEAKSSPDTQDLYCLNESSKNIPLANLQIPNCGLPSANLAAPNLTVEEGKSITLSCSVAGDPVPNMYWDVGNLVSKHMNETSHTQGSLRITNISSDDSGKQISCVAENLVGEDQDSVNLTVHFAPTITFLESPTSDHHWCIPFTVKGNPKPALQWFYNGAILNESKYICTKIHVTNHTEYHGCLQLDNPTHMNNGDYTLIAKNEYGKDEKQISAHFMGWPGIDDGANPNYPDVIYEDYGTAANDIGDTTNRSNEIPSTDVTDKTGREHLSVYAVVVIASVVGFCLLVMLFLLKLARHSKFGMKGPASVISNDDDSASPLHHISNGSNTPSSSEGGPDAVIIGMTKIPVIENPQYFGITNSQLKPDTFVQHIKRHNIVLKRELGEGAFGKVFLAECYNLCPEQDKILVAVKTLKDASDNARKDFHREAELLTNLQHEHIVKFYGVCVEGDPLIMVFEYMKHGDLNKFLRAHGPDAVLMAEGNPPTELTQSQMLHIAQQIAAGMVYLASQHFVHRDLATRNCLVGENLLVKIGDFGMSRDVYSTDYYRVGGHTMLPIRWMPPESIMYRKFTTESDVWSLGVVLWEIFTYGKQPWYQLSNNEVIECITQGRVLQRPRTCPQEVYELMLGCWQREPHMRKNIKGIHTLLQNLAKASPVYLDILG

[52] = biological target: Dual specificity tyrosine-phosphorylation-regulated kinase 1B (Homo sapiens, UniProt Q9Y463); test: Navigating the Kinome. Panel member name: DYRK1B
Focal adhesion kinase 1 = Focal adhesion kinase 1 (Homo sapiens, UniProt Q05397);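 also: measured as one member of a kinome panel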
[53] = biological target: Protein kinase C theta type (Homo sapiens, UniProt Q04759); test: Navigating the Kinome. Panel member name: PRKCQ

Ki (LIM domain kinase 1): 501 nM (active)
Ki [1]: 631 nM (active)
Ki [2]: > 3980 nM (inactive)
Ki [3]: 398 nM (active)
Ki [4]: 398 nM (active)
Ki [5]: 200 nM (active)
Ki [6]: 631 nM (active)
Ki [7]: 501 nM (active)
Ki [8]: > 3160 nM (inactive)
Ki [9]: 100 nM (active)
Ki [10]: 126 nM (active)
Ki [11]: 251 nM (active)
Ki [12]: 2510 nM (active)
Ki [13]: 398 nM (active)
Ki [14]: 126 nM (active)
Ki [15]: > 2510 nM (inactive)
Ki [16]: 398 nM (active)
Ki [17]: 398 nM (active)
Ki [18]: 1000 nM (active)
Ki [19]: 158 nM (active)
Ki [20]: 2000 nM (active)
Ki [21]: > 5010 nM (inactive)
Ki [22]: 631 nM (active)
Ki [23]: 50.1 nM (active)
Ki (Aurora kinase A): 158 nM (active)
Ki (Aurora kinase B): 501 nM (active)
Ki [24]: 79.4 nM (active)
Ki [25]: 631 nM (active)
Ki [26]: 631 nM (active)
Ki [27]: 1000 nM (active)
Ki [28]: 1000 nM (active)
Ki [29]: 1580 nM (active)
Ki [30]: 794 nM (active)
Ki [31]: 398 nM (active)
Ki (Activated CDC42 kinase 1): 631 nM (active)
Ki [32]: 251 nM (active)
Ki [33]: > 3980 nM (inactive)
Ki [34]: 316 nM (active)
Ki [35]: 158 nM (active)
Ki [36]: 501 nM (active)
Ki [37]: 1580 nM (active)
Ki [38]: 794 nM (active)
Ki [39]: 316 nM (active)
Ki [40]: 100 nM (active)
Ki [41]: 1580 nM (active)
Ki [42]: 501 nM (active)
Ki [43]: 316 nM (active)
Ki [44]: 39.8 nM (active)
Ki [46]: 631 nM (active)
Ki [47]: 2510 nM (active)
Ki [48]: 100 nM (active)
Ki (Activin receptor type-1): > 3980 nM (inactive)
Ki [49]: 79.4 nM (active)
Ki [50]: 794 nM (active)
Ki [51]: 794 nM (active)
Ki [52]: 63.1 nM (active)
Ki (Focal adhesion kinase 1): 3980 nM (active)
Ki [53]: 794 nM (active)
Structure (SMILES): CCC(=O)Nc1ccc(C(=O)N2CCNCC2)c(O)c1
Ki [45]: 794 nM (active)
